From patent publication US5137871A, “Treatment to reduce edema for brain and musculature injuries” (Regents of the University of California, priority 1989, dated 1992)
No end group written: not given here.

Key:
[1] = test system: ACTH secretion; details: reported in prior art; cited from earlier work
[2] = test system: blood pressure; details: reported in prior art; cited from earlier work
[3] = test system: brain vascular permeability after cold injury; experiment: Cold (freeze) injury to brain, vascular leakage by Monastral blue staining; assay type: in vivo, rat
Excerpt: An in vivo model of injury to study brain edema has been developed as a reproducible edema model, which has the features of immediate cortical damage followed by the subsequent development of brain edema. This model is described by Chan et al., Brain Research 277, pp. 329-337 (1983). The model uses rats which are anesthetized. A 2.5 cm incision is made over the sagittal suture and the bone of the right hemisphere exposed. A 60 mm^2 plate attached to a brass cup filled with dry ice-acetone mixture, with a temperature of -50° C., is applied to the rat skull for one minute. The animals are sacrificed at various intervals after the onset of cold-injury. A dye is administered intravenously before the freezing. Cortical slices are then obtained of the brain.
16 male rats were randomly divided into eight pairs and one rat in each pair received either saline or CRF (subcutaneously twice at 30 μg/kg, 30 min and 10 min before cold injury). The animals were anesthetized with sodium pentobarbital, 60 mg/kg intraperitoneally, and injected with Monastral blue, 60 mg/kg intravenously. A cold probe was applied onto the skull for […] and the brains taken out 1 hour after cold injury. The staining of brain tissues with Monastral blue, a colloidal pigment that gets trapped between the albuminal surface of the endothelial cell and the basement membrane, was proportional to the degree of vascular leakage. The results from the first pair are shown as FIG. 1.
The size of the lesion, measured as area in mm^2, and the degree of staining intensity, were quantified using an image-analysis software program called JAVA (Jandel Corporation, San Rafael, Calif.). The stain intensity, given in arbitrary units, was internally calibrated using Monastral blue solutions (1-30 mg/ml) placed on white filter paper. Values are mean ± S.E.M.

[4] = test system: PAF-acether induced vascular leakage in muscle; experiment: Vascular leakage produced by PAF-acether injected subcutaneously into the abdomen; assay type: in vivo, rat
Description: CRF: 30 μg/kg s.c. injected 30 min before subcutaneous
injection of PAF-acether (1 μg/0.1 ml/rat) into the
abdomen; muscle removed 0.5 hr later.

[5] = test system: muscle vascular permeability after celiotomy; experiment: Vascular leakage after celiotomy (4 cm midline incision through abdominal muscle wall), Monastral blue; assay type: in vivo, rat; details: for Area / Intensity / Lesion Size: tissues taken 0.5 hr after surgery; for vascular leakage (lesion size) relative to that of the saline-treated group: Table III
Description: Experiments were conducted on male Sprague-Dawley rats 243±15 gm (S.D., Simonsen Labs., Gilroy, Calif.) anesthetized with sodium pentobarbital, 60 mg/kg i.p. Monastral blue, 60 mg/kg i.v., was injected 0.2 ml/100 g, 3 min. before a 4 cm midline incision through the abdominal muscle wall (celiotomy). Saline or CRF was administered to randomized pairs with N=8 rats per group. The size of the lesion, measured as area in mm^2, and its light intensity, were quantified using the JAVA image-analysis software program. The light intensity, given in arbitrary units, was internally calibrated using Monastral blue solutions (1-30 mg/ml) placed on white filter paper. Values are mean ± S.E.M. FIG. 2 illustrates the respective amount of vascular permeability for one pair of rats (control and treated). Tables III and IV set out data from these experiments.
CRF: injected at various doses subcutaneously 30 min
before a 4 cm midline incision, tissues taken 0.5 hr
CRF: 30 μg/kg s.c. injected 2 hr before a 4 cm midline
incision, tissues taken 0.5 hr after surgery

[6] = test system: edema of rat pawskin; details: mediators injected into the rat pawskin; previously shown; cited from earlier work
[7] = test system: brain edema after freeze injury; experiment: Freeze injury to cerebral cortex, brain water and sodium content (brain edema); assay type: in vivo, rat; details: CRF 30 μg/kg s.c. 2×, tissues 3 hr after injury, ± S.E.M., N = 5
Description: In a second set of experiments, the brain surface, namely the cerebral cortex, was injured by freezing and the water and sodium content were measured in the cerebral cortex and in the basal ganglia, a part of the brain away from the freeze zone. The water and sodium content of the brain tissue served as an index of brain edema. After freeze injury, the water and sodium content of the cerebral cortex were evaluated relative to non-frozen tissues. CRF administered in two separate doses of 30 μg/kg subcutaneously, one dose 15 min. before the injury and the second dose 90 min. after the first dose, inhibited the two indices of brain edema.
Male SpragueDawley rats, 300-325 g, anesthetized with
ketamineacepromazine, were injected saline or CRF (30 μg/kg s.c.
2×) and injury to cerebral cortex was produced by applying a cold
probe to the skull for 1 min. Brain tissues were obtained 3 hr later and
analyzed for water and sodium content.

[8] = rat, CRF 30 μg/kg s.c. twice, 30 min and 10 min before cold injury, brains taken 1 hour after injury, mean ± S.E.M.
[9] = CRF 30 μg/kg s.c. 30 min before PAF-acether 1 μg/0.1 ml/rat s.c., muscle removed 0.5 hr later
[10] = CRF 15 μg/kg s.c. 30 min before incision
[11] = CRF 30 μg/kg s.c. 30 min before incision
[12] = CRF 30 μg/kg s.c. 2 hr before incision
[13] = CRF 60 μg/kg s.c. 30 min before incision

For `CC[C@H](C)[C@H](NC(=O)[C@@H](NC(=O)[C@H](CC(=O)O)NC(=O)[C@H](CC(C)C)NC(=O)[C@H](CC(C)C)NC(=O)[C@H](CC(C)C)NC(=O)[C@H](CCCNC(=N)N)NC(=O)[C@H](CC(N)=O)NC(=O)[C@H](CC(N)=O)NC(=O)[C@H](C)NC(=O)[C@H](C)NC(=O)[C@H](CCC(N)=O)NC(=O)[C@H](CCC(N)=O)NC(=O)[C@H](CCCCN)NC(=O)[C@H](CCC(=O)O)NC(=O)[C@H](CCCCN)NC(=O)[C@H](CCC(=O)O)NC(=O)[C@H](CCC(N)=O)NC(=O)[C@H](CCCCN)NC(=O)[C@H](CCC(=O)O)NC(=O)[C@@H](NC(=O)[C@H](CCC(=O)O)NC(=O)[C@@H](NC(=O)[C@H](CCSC)NC(=O)[C@H](CCCCN)NC(=O)[C@H](CCCNC(=N)N)NC(=O)[C@H](CC(C)C)NC(=O)[C@H](CC(C)C)NC(=O)[C@H](CCC(=O)O)NC(=O)[C@H](CC(C)C)NC(=O)[C@H](CO)NC(=O)[C@H](CC(C)C)NC(=O)[C@H](CC(=O)O)NC(=O)[C@@H](NC(=O)[C@H](CO)NC(=O)[C@@H](NC(=O)[C@@H]1CCCN1C(=O)[C@@H]1CCCN1C(=O)CNC(=O)[C@@H]1CCC(=O)N1)[C@@H](C)CC)[C@@H](C)CC)[C@@H](C)CC)[C@@H](C)CC)[C@@H](C)O)C(N)=O` [Sauvagine], the “effect on ACTH secretion” value [1] is given as “stimulating the secretion of ACTH” and the “effect on blood pressure” value [2] is given as “lowering blood pressure”.
In the case of “H-Asn-Asp-Asp-Pro-Pro-Ile-Ser-Ile-Asp-Leu-Thr-Phe-His-Leu-Leu-Arg-Asn-Met-Ile-Glu-Met-Ala-Arg-Asn-Glu-Asn-Gln-Arg-Glu-Gln-Ala-Gly-Leu-Asn-Arg-Lys-Tyr- Leu-Asp-Glu-Val-NH2 (H-NDDPPISIDLTFHLLRNMIEMARNENQREQAGLNRKYLDEV-NH2) [carp urotensin]”, the “effect on ACTH secretion” value [1] is listed as “stimulate ACTH” and the “effect on blood pressure” value [2] is listed as “lower blood pressure”.
In the case of “Ser-Gln-Glu-Pro-Pro-Ile-Ser-Leu-Asp-Leu-Thr-Phe-His-Leu-Leu-Arg-Glu-Val-Leu-Glu-Met-Thr-Lys-Ala-Asp-Gln-Leu-Ala-Gln-Gln-Ala-His-Ser-Asn-Arg-Lys-Leu-Leu-Asp-Ile-Ala-NH2 (SQEPPISLDLTFHLLREVLEMTKADQLAQQAHSNRKLLDIA-NH2) [oCRF]”, the “effect on blood pressure” value [2] is given as “lower blood pressure”.
In the case of “Ser-Glu-Glu-Pro-Pro-Ile-Ser-Leu-Asp-Leu-Thr-Phe-His-Leu-Leu-Arg-Glu-Val-Leu-Glu-Met-Ala-Arg-Ala-Glu-Gln-Leu-Ala-Gln-Gln-Ala-His-Ser-Asn-Arg-Lys-Leu-Met-Glu-Ile-Ile-NH^2 (SEEPPISLDLTFHLLREVLEMARAEQLAQQAHSNRKLMEII-NH2) [CRF, 41 amino acid neuropeptide]”, the “lesion size relative to that of the saline-treated group” value ([3]; Table I, brain cold injury, CRF 30 μg/kg s.c. twice) is reported as 44%, the “correct assignment of brains to saline or CRF group by an observer unaware of pretreatment” value ([3]; eight pairs of rats, more damaged vs less damaged brain) is reported as 8 out of 8 and the Area [3, 8] is reported as 20.8 ± 1.2 mm^2. For the same molecule, the “Intensity (staining intensity)” value [3, 8] was 2.0 ± 0.05 arbitrary units, the “Lesion Size” value [3, 8] was 43 ± 3 and the “effect on ACTH secretion” value [1] was “stimulates ACTH release from pituitary cells”. The Area [4, 9] was 188 ± 16 mm^2, the Intesnity [4, 9] was 1.4 ± 0.05 and the “Lesion Size” value [4, 9] was 260 ± 26. For the same molecule, the “muscle lesion size relative to that of the saline-treated control group” value ([4]; Table V, CRF 30 μg/kg s.c.) was 44%, the Area [5, 10] was 505 ± 16 mm^2 and the Intensity [5, 10] was 2.0 ± 0.03 arbitrary units. For the same molecule, the “Lesion Size” value [5, 10] was 1031 ± 44, the Area [5, 11] was 361 ± 18 mm^2 and the Intensity [5, 11] was 1.9 ± 0.05 arbitrary units. For the same molecule, the “Lesion Size” value [5, 11] was 676 ± 47, the Area [5, 12] was 477 ± 31 mm^2 and the Intensity [5, 12] was 1.9 ± 0.03 arbitrary units. For the same molecule, the “Lesion Size” value [5, 12] was 919 ± 51, the Area [5, 13] was 257 ± 3 mm^2 and the Intensity [5, 13] was 1.8 ± 0.05 arbitrary units. For the same molecule, the “Lesion Size” value [5, 13] was 468 ± 19, the “vascular leakage (lesion size) relative to that of the saline-treated group” value [5, 10] was 63% and the “vascular leakage (lesion size) relative to that of the saline-treated group” value [5, 11] was 42%. For the same molecule, the “vascular leakage (lesion size) relative to that of the saline-treated group” value [5, 13] was 29%, the “lesion size relative to that of the saline-treated group” value ([5]; Table IV, CRF 30 μg/kg s.c. 2 hr before incision) was 59% and the “effect on edema produced by serotonin, substance P, bradykinin, neurotensin, histamine” value [6] was “antagonize the edema-producing properties”. For the same molecule, the SODIUM ([7]; BASAL GANGLIA (non-injured)) was 215 ± 9 mEg/kg dry wt, the “WATER CONTENT” value ([7]; BASAL GANGLIA (non-injured)) was 76 ± 1% and the SODIUM ([7]; CEREBRAL CORTEX (injured)) was 271 ± 8 mEg/kg dry wt. For the same molecule, the “WATER CONTENT” value ([7]; CEREBRAL CORTEX (injured)) was 77 ± 4%.
